How the values were obtained:
Tryptase beta-1 [1] = biological target: T1, Tryptase beta-1 (Homo sapiens, UniProt Q15661); test: In vitro inhibitory activity against tryptase
[2] = Inhibitory concentration against Trypsin was determined
[3] = Inhibitory concentration against Chymase was determined
[4] = Inhibitory concentration against Thrombin was determined
[5] = Inhibitory concentration against Factor Xa was determined
Tryptase beta-1 [6] = biological target: T1, Tryptase beta-1; test: Inhibition concentration against beta tryptase was determined
Tryptase beta-1 [7] = biological target: T1, Tryptase beta-1; test: Inhibitory concentration against alpha tryptase was determined
[8] = Bioavailability in rat using combiPK assay (dose 1 mg/kg i.v.); format: ADME, organism-based; details: in vivo, iv
[9] = Bioavailability in rat (combiPK assay) (dose 2 mg/kg p.o.); format: ADME, organism-based; details: in vivo, po
[10] = Bioavailability in rat using combiPK (dose of 2 mg/kg p.o.); format: ADME, organism-based; details: in vivo, po
[11] = Bioavailability in rat using combiPK (dose 1 mg/kg i.v.); format: ADME, organism-based; details: in vivo, iv
[12] = Bioavailability using combiPK assay in rats at a dose of 1 mg/kg administered intravenously; format: ADME, organism-based; details: rat, in vivo, iv, read-out: Bioavailabiility
[13] = Bioavailability using combiPK assay in rats at a dose of 2 mg/kg administered orally; format: ADME, organism-based; details: rat, in vivo, po, read-out: Bioavailabiility

T1 sequence (Q15661 whole entry): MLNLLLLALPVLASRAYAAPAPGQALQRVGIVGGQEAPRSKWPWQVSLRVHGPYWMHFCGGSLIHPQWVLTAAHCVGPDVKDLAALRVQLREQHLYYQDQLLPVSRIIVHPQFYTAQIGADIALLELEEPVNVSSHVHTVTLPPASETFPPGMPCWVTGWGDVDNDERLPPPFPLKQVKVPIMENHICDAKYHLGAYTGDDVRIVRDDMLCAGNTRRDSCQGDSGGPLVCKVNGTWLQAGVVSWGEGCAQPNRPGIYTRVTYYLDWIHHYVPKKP

SMILES	Ki (Tryptase beta-1 [1]) [nM]	other results
COCCn1cc(C(=O)N2CCC(c3cccc(CN)c3)CC2)c2cccc(C)c21	32	
NCc1cccc(C2CCN(C(=O)c3cn(C(=O)c4cccs4)c4ccccc34)CC2)c1	246	
NCc1cccc(C2CCN(C(=O)c3c[nH]c4c(F)cccc34)CC2)c1	368	
CCCCn1cc(C(=O)N2CCC(c3cccc(CN)c3)CC2)c2cccc(C)c21.O=C(O)C(F)(F)F	68	IC50 [2]: > 10 µM; IC50 [3]: > 10 µM; IC50 [4]: > 10 µM; IC50 [5]: > 10 µM; IC50 (Tryptase beta-1 [6]): 68 nM; IC50 (Tryptase beta-1 [7]): 3.69 µM; bioavailability [8]: 33%
Cc1ccc2[nH]cc(C(=O)N3CCC(c4cccc(CN)c4)CC3)c2c1	101	
CC(C)n1cc(C(=O)N2CCC(c3cccc(CN)c3)CC2)c2ccccc21	310	
CCCCCCn1cc(C(=O)N2CCC(c3cccc(CN)c3)CC2)c2ccccc21	125	
CCCCn1cc(C(=O)N2CCC(c3cccc(CN)c3)CC2)c2ccccc21.O=C(O)C(F)(F)F	49	bioavailability [9]: 9.3%; bioavailability [8]: 9.3%
CC(C)Cn1cc(C(=O)N2CCC(c3cccc(CN)c3)CC2)c2ccccc21	116	
CCCn1cc(C(=O)N2CCC(c3cccc(CN)c3)CC2)c2cccc(C)c21	41	
CCCn1cc(C(=O)N2CCC(c3cccc(CN)c3)CC2)c2ccccc21	185	
Cc1ccc2c(C(=O)N3CCC(c4cccc(CN)c4)CC3)c[nH]c2c1	> 2000	
COCCn1cc(C(=O)N2CCC(c3cccc(CN)c3)CC2)c2ccccc21	57	
NCc1cccc(C2CCN(C(=O)c3cn(CC4CCCCC4)c4ccccc34)CC2)c1	497	
NCc1cccc(C2CCN(C(=O)c3cn(-c4nccs4)c4ccccc34)CC2)c1	373	
NCc1cccc(C2CCN(C(=O)c3cn(S(=O)(=O)c4ccccc4)c4ccccc34)CC2)c1.O=C(O)C(F)(F)F	128	bioavailability [10]: 17%; bioavailability [11]: 17%
Cc1cccc2[nH]cc(C(=O)N3CCC(c4cccc(CN)c4)CC3)c12	> 2000	
NCc1cccc(C2CCN(C(=O)c3cn(CC4CC4)c4ccccc34)CC2)c1	141	
CCn1cc(C(=O)N2CCC(c3cccc(CN)c3)CC2)c2ccccc21.O=C(O)C(F)(F)F	124	bioavailability [9]: 11%; bioavailability [8]: 11%
CC(=O)n1cc(C(=O)N2CCC(c3cccc(CN)c3)CC2)c2ccccc21	240	
CS(=O)(=O)n1cc(C(=O)N2CCC(c3cccc(CN)c3)CC2)c2ccccc21	162	
Cc1cccc2c(C(=O)N3CCC(c4cccc(CN)c4)CC3)c[nH]c12.O=C(O)C(F)(F)F	61	bioavailability [10]: 19%; bioavailability [12]: 19%
Cn1cc(C(=O)N2CCC(c3cccc(CN)c3)CC2)c2ccccc21	155	
NCc1cccc(C2CCN(C(=O)c3cn(-c4cccnc4)c4ccccc34)CC2)c1	197	
NCc1cccc(C2CCN(C(=O)c3c[nH]c4ccccc34)CC2)c1.O=C(O)C(F)(F)F	290	bioavailability [13]: 22%; bioavailability [11]: 22%
CCn1cc(C(=O)N2CCC(c3cccc(CN)c3)CC2)c2cccc(C)c21.O=C(O)C(F)(F)F	41	bioavailability [9]: 26%; bioavailability [8]: 26%
